Experimental data published in patent US11938123B2, “Use of 2,3,5-substituted thiophene compound to prevent, ameliorate, or treat breast cancers” (Pharos iBio Co., Ltd., priority 2018, dated 2024).

Columns and labels:
MDA-MB-468 [1] = assay: Tumor inhibitory activity in mice with MDA-MB-468 tumors (Example 5); assay type: in vivo, NOD SCID female mice; details: MDA-MB-468 tumors in mice; olaparib 50 mg/kg/day, PHI-101 60 mg/kg/day; treated 28 days
Description: The breast cancer cell line MDA-MB-468 was monolayer-cultured in an L-15 medium supplemented with 10% heat-inactivated fetal bovine serum under 5% CO2 at 37° C. The tumor cells were subcultured so as not to exceed passages 4 to 5 before confluence by trypsin-EDTA treatment. The tumor cells growing in an exponential growth phase were harvested and counted for tumor inoculation.
(§1) As mice, 6-8-week-old NOD SCID female mice (18 to 22 g) (GemPharmatech Co., Ltd) were prepared. The mice were quarantined for 7 days before use in the experiment, and mice with abnormal health were excluded from the experiment. The mice were housed in cages (300×180×150 mm) at 22±3° C. and a relative humidity of 40% to 70% under a 12-hour light/12-hour dark cycle. During the entire experimental period except for the period specified by the protocol, the mice were allowed to freely access sterilized dry granular food (Beijing Keaoxieli Feed Co., Ltd., Beijing, China) and water.
(§2) For tumor induction, MDA-MB-468 breast cancer cells (1×10^7) in 0.1 ml of a mixture (1:1) of L-15 and Matrigel (BD, cat. No. 356234) were injected subcutaneously into the right flank of each mouse. […] Then, five mice were allocated for each group so that the average tumor volume was the same between the groups at the time point of treatment.
Measurement of the tumor volume was performed with calipers twice a week. The tumor volume (TV) (mm^3) was calculated using the following equation. TV=a×b^2/2
The tumor growth inhibition (TGI) rate was calculated according to the following equation using the tumor volume. TGI (%)=(1−T/C)×100
T=final tumor volume of experimental group/initial tumor volume of experimental group
C=final tumor volume of control group/initial tumor volume of control group
In order to evaluate whether PHI-101 and/or olaparib affects tumor inhibition in the mice, the volume and growth inhibition rate of the tumor generated by the breast cancer cell line MDA-MB-468 transplanted into the mice were analyzed according to Example 5-1-6.

JIMT1 [2] = assay: Breast cancer cell line viability, PHI-101 alone (Example 1); assay type: cell-based; details: Homo sapiens, JIMT-1; JIMT1, non-triple-negative breast cancer; 72 hours; Celltiter-Glo
Description: (§3) Each of the breast cancer cell lines shown in Table 1 below was cultured with DMEM (Dulbecco's Modified Eagle Medium) or RPMI1640 in a 100-mm culture dish (SPL) under 5% CO2 at 37° C., and then diluted to a density of 3,000 cells/90 μl using PBS (phosphate-buffered saline) (Biosesang).
(§4) Next, 90 μl of each of the diluted breast cancer cell lines was treated with 10 μl of a 1:2 serial dilution of a hydrochloride salt of the compound represented by Formula 1 (hereinafter referred to as “PHI-101”) to a final concentration of up to 100 μM, and then cultured under 5% CO2 at 37° C. for 72 hours. After culture, the cells were counted using a Celltiter-Glo assay kit (Promega), and cell viability was measured by expressing the cell count as a percentage relative to that of a control group not treated with PHI-101.
(§5) The IC50 of PHI-101 for each breast cancer cell line was calculated by sigmoidal curve fitting using the PRIZM software, and the results of the calculation are shown in Table 2 below. It was confirmed that PHI-101 had excellent ability to inhibit the breast cancer cell lines, and that PHI-101 also had excellent ability to inhibit the triple-negative breast cancer cell lines (FIGS. 1 to 3).

BT549 [3] = assay: as above; assay type: cell-based; details: Homo sapiens, BT-549; BT549, triple-negative breast cancer; 72 hours; Celltiter-Glo
Description: as §3, §4, §5

BT474 [4] = assay: as above; assay type: cell-based; details: Homo sapiens, BT-474; BT474, non-triple-negative breast cancer; 72 hours; Celltiter-Glo
Description: as §3, §4, §5

MDA-MB-435 = assay: as above; assay type: cell-based; details: Homo sapiens; MDA-MB-435, triple-negative breast cancer; 72 hours; Celltiter-Glo
Description: as §3, §4, §5

T47D [5] = assay: as above; assay type: cell-based; details: Homo sapiens, non-triple-negative breast cancer, 72 hours, Celltiter-Glo
Description: as §3, §4, §5

HCC1937 = assay: as above; assay type: cell-based; details: Homo sapiens; HCC1937, triple-negative breast cancer; 72 hours; Celltiter-Glo
Description: as §3, §4, §5

MDA-MB-231 = assay: as above; assay type: cell-based; details: Homo sapiens; MDA-MB-231, triple-negative breast cancer; 72 hours; Celltiter-Glo
Description: as §3, §4, §5

MDA-MB-468 [6] = assay: as above; assay type: cell-based; details: Homo sapiens; MDA-MB-468, triple-negative breast cancer; 72 hours; Celltiter-Glo
Description: as §3, §4, §5

SK-BR-3 [7] = assay: as above; assay type: cell-based; details: Homo sapiens; SK-BR-3, non-triple-negative breast cancer; 72 hours; Celltiter-Glo
Description: as §3, §4, §5

ZR-75-1 [8] = assay: as above; assay type: cell-based; details: Homo sapiens; ZR-75-1, non-triple-negative breast cancer; 72 hours; Celltiter-Glo
Description: as §3, §4, §5

HS578T [9] = assay: as above; assay type: cell-based; details: Homo sapiens, Hs-578T, triple-negative breast cancer, 72 hours, Celltiter-Glo
Description: as §3, §4, §5

MCF7 [10] = assay: as above; assay type: cell-based; details: Homo sapiens; MCF7, non-triple-negative breast cancer; 72 hours; Celltiter-Glo
Description: as §3, §4, §5

JIMT-1 = assay: Tumor inhibitory activity in mice with Herceptin-resistant JIMT-1 tumors (Example 6); assay type: in vivo, NOD SCID female mice; details: JIMT-1 tumors in mice; PHI-101 60 mg/kg/day vs Herceptin 5 mg/kg/day; 3 weeks; FIG. 16
Description: The Herceptin-resistant breast cancer cell line JIMT-1 was monolayer-cultured in an L-15 medium supplemented with 10% heat-inactivated fetal bovine serum under 5% CO2 at 37° C. The tumor cells were subcultured so as not to exceed passages 4 to 5 before confluence by trypsin-EDTA treatment. The tumor cells growing in an exponential growth phase were harvested and counted for tumor inoculation.
As mice, 7-8-week-old NOD SCID female mice (20 to 22 g) (GemPharmatech Co., Ltd.) were prepared. The mice were quarantined for 7 days before use in the experiment, and mice with abnormal health were excluded from the experiment. The mice were housed in cages (300×180×150 mm) at 22±3° C. and a relative humidity of 40% to 70% under a 12-hour light/12-hour dark cycle. […]
Measurement of the tumor volume was performed with calipers twice a week. The tumor volume (TV) (mm^3) was calculated using the following equation. […]
The tumor growth inhibition (TGI) rate was calculated according to the following equation using the tumor volume. […]
In order to evaluate whether PHI-101 has an effect on tumor inhibition in the mice, the volume and growth inhibition rate of the tumor generated by the breast cancer cell line JIMT-1 transplanted into the mice were analyzed by performing Example 6-1-5.

BT549 [11] = assay: Cell viability, PHI-101 alone or with cisplatin (Example 2); assay type: cell-based; details: Homo sapiens, BT-549; BT549 (triple-negative); medium instead of cisplatin; 72 hours
Description: (§6) Each of the breast cancer cell lines shown in Table 3 below was cultured using RPMI-1640 in a 100-mm culture dish, and then diluted to a density of 3,000 cells/90 μl using PBS.
(§7) Thereafter, 90 μl of each of the diluted breast cancer cell lines was treated with 10 μl of a 1:2 serial dilution of a hydrochloride salt of PHI-101 to a final concentration of up to 100 μM and cultured under 5% CO2 at 37° C. for 1 hour, and then treated with cisplatin at an IC50 concentration for each cell line. Groups treated with PHI-101 alone were additionally treated with 10 μl of medium instead of cisplatin. Next, each of the cell lines was cultured under 5% CO2 at 37° C. for 72 hours. Next, the cells were counted using a Celltiter-Glo assay kit (Promega), and cell viability was measured by expressing the cell count as a percentage relative to that of a control group not treated with PHI-101 and cisplatin.
(§8) IC50 for each breast cancer cell line was calculated by sigmoidal curve fitting using the PRIZM software, and the results of the calculation are shown in Table 4 below.

BT474 [12] = assay: as above; assay type: cell-based; details: Homo sapiens, BT-474, medium instead of cisplatin, 72 hours
Description: as §6, §7, §8

T47D [13] = assay: as above; assay type: cell-based; details: Homo sapiens, medium instead of cisplatin, 72 hours
Description: as §6, §7, §8

ZR-75-1 [14] = assay: as above; assay type: cell-based; details: Homo sapiens, medium instead of cisplatin, 72 hours
Description: as §6, §7, §8

MCF7 [15] = assay: as above; assay type: cell-based; details: Homo sapiens, medium instead of cisplatin, 72 hours
Description: as §6, §7, §8

[16] = Mouse body weight change in MDA-MB-468 tumor model (Example 5); assay type: in vivo, NOD SCID female mice; details: MDA-MB-468 tumor mice; olaparib 50 mg/kg/day, PHI-101 60 mg/kg/day; 28 days; FIG. 14
Description: as §1, §2
The body weight of each mouse was measured twice a week, and the change (%) in body weight (BW) was calculated using the following equation. BW change (%)=(BWPG-Dx/BWPG-D1)×100
In order to evaluate whether PHI-101 and/or olaparib affected the body weight of each mouse, the change in the body weight of each mouse was analyzed according to Example 5-1-5.

JIMT1 [17] = assay: Cell viability, olaparib alone or with PHI-101 (Example 3); assay type: cell-based; details: Homo sapiens, JIMT-1, medium instead of PHI-101, 72 hours
Description: (§9) Each of the breast cancer cell lines shown in Table 5 below was cultured with DMEM (Dulbecco's Modified Eagle Medium) or RPMI1640 in a 100-mm culture dish (SPL), and then diluted to a density of 3,000 cells/90 μl using PBS (phosphate-buffered saline) (Biosesang).
(§10) Thereafter, 90 μl of each of the diluted breast cancer cell lines was treated with 10 μl of a 1:2 serial dilution of olaparib to a final concentration of up to 100 μM, and cultured under 5% CO2 at 37° C. for 1 hour. Then, each breast cancer cell line was treated with a hydrochloride salt of PHI-101 to a final concentration of 1 μM. Groups treated with olaparib alone were additionally treated with 10μ of medium instead of PHI-101. Thereafter, each cell line was cultured under 5% CO2 at 37° C. for 72 hours. Then, the cells were counted using a Celltiter-Glo assay kit (Promega), and cell viability was measured by expressing the cell count as a percentage relative to that of a control group not treated with PHI-101 and olaparib.
(§11) IC50 for each breast cancer cell line was calculated by sigmoidal curve fitting using the PRIZM software, and the results of the calculation are shown in Table 6 below.

BT474 [18] = assay: as above; assay type: cell-based; details: Homo sapiens, BT-474, medium instead of PHI-101, 72 hours
Description: as §9, §10, §11

T47D [19] = assay: as above; assay type: cell-based; details: Homo sapiens, medium instead of PHI-101, 72 hours
Description: as §9, §10, §11

MDA-MB-468 [20] = assay: as above; assay type: cell-based; details: Homo sapiens; MDA-MB-468 (triple-negative); medium instead of PHI-101; 72 hours
Description: as §9, §10, §11

SK-BR-3 [21] = assay: as above; assay type: cell-based; details: Homo sapiens, medium instead of PHI-101, 72 hours
Description: as §9, §10, §11

ZR-75-1 [22] = assay: as above; assay type: cell-based; details: Homo sapiens, medium instead of PHI-101, 72 hours
Description: as §9, §10, §11

HS578T [23] = assay: as above; assay type: cell-based; details: Homo sapiens, Hs-578T; HS578T (triple-negative); medium instead of PHI-101; 72 hours
Description: as §9, §10, §11

MCF7 [24] = assay: as above; assay type: cell-based; details: Homo sapiens, medium instead of PHI-101, 72 hours
Description: as §9, §10, §11

NC(=O)Nc1cc(C#Cc2cccc(F)c2)sc1C(=O)N[C@H]1CCCNC1 [PHI-101, (S)-5-((3-fluorophenyl)ethynyl)-N-(piperidin-3-yl)-3-ureido thiophene-2-carboxamide]
T/C (MDA-MB-468 [1]): 84%
TGI (MDA-MB-468 [1]): 16%
Tumor volume (52 days) (MDA-MB-468 [1]): 443 ± 18 mm^3
IC50 (JIMT1 [2]): 0.27 µM
IC50 (BT549 [3]): 1.63 µM
IC50 (BT474 [4]): 14.7 µM
IC50 (MDA-MB-435): 1.51 µM
IC50 (T47D [5]): 17.8 µM
IC50 (HCC1937): 4.03 µM
IC50 (MDA-MB-231): 4.97 µM
IC50 (MDA-MB-468 [6]): 3.74 µM
IC50 (SK-BR-3 [7]): 4.11 µM
IC50 (ZR-75-1 [8]): 11.4 µM
IC50 (HS578T [9]): 1.8 µM
IC50 (MCF7 [10]): 3.71 µM
Growth inhibition rate of the Herceptin-resistant tumor, compared with Herceptin group (JIMT-1): higher
IC50 (BT549 [11]): 1.71 µM
IC50 (BT474 [12]): 14.3 µM
IC50 (T47D [13]): 19.2 µM
IC50 (ZR-75-1 [14]): 11.8 µM
IC50 (MCF7 [15]): 3.23 µM
Change in the body weight of each mouse [16]: no significant change

O=C(c1cc(Cc2n[nH]c(=O)c3ccccc23)ccc1F)N1CCN(C(=O)C2CC2)CC1 [olaparib]
T/C (MDA-MB-468 [1]): 76%
TGI (MDA-MB-468 [1]): 24%
Tumor volume (52 days) (MDA-MB-468 [1]): 402 ± 25 mm^3
IC50 (JIMT1 [17]): 520 µM
IC50 (BT474 [18]): 74.6 µM
IC50 (T47D [19]): 77 µM
IC50 (MDA-MB-468 [20]): 47.1 µM
IC50 (SK-BR-3 [21]): 127 µM
IC50 (ZR-75-1 [22]): 352 µM
IC50 (HS578T [23]): 186 µM
IC50 (MCF7 [24]): 98 µM
Change in the body weight of each mouse [16]: no significant change
